Test results taken from patent publication US4658013A, “Analgesic and/or opiate antagonist tripeptide amides and processes for preparation and compositions thereof” (Sterling Drug Inc., priority 1983, dated 1987).
Non-standard residues stand in square brackets, D forms with d. No end group written: not given here.

test system: guinea pig ileum longitudinal muscle with adhering myenteric plexus; test: not given; conditions: Vavrek et al., Abstract P-76, 1981; cited from earlier work

**Q.** Which “activity as % of Met-enkephalin on the stimulated guinea pig ileum” value does the source give for Tyr-[dA]-Phe-NH2 here?
**A.** Its value is 25%.

test system: guinea pig ileum longitudinal muscle with adhering myenteric plexus; test: Guinea pig ileum test (inhibition of electrically induced twitch of longitudinal muscle strips); assay type: cell-based; conditions: ratio of IC50 of reference Met^5-enkephalin to IC50 of test compound in the same preparation, averaged (N=4); reference given as 100
Description: Adult male guinea pigs (Charles River, Hartley strain) weighing 300-500 g. are decapitated, and the terminal ileum is exposed by reflecting the overlying cecum, severed at the ileocecal juncture, and removed while cutting the mesenteric attachments to avoid excessive traction on the tissue. The ileum (about 30 cm. in length) is transferred to a beaker containing warm modified Krebs-Henseleit solution (118 mM sodium chloride, 4.75 mM potassium chloride, 2.54 mM calcium chloride, 1.19 mM potassium dihydrogen phosphate, 1.2 mM magnesium sulfate, 25 mM sodium bicarbonate, 11 mM glucose, 20 μM choline chloride and 0.125 μM pyrilamine maleate). The terminal (aboral) portion (about 10 cm, in length) is discarded, and segments (3-4 cm. in length) are cut from the remainder and gently slid onto a glass rod (5-6 mm. in diameter) and arranged so that the mesenteric attachment is in a straight line. A cotton swab moistened in the solution is then carefully used to separate the longitudinal muscle from the underlying circular muscle. The longitudinal muscle and adhering myenteric plexus is then gently removed from the remaining tissue with forceps.
Strips of thus prepared longitudinal muscle are mounted in a double-jacketed organ bath (5 ml.) under tension (1.0 g.), connected to isometric transducers (Grass FT 0.03), bathed in the modified Krebs-Henseleit solution described above, aerated with oxygen-carbon dioxide (95:5) and maintained at 37° C.
Stimulators (Grass S-44) are set to deliver repetitive, monophasic square wave field stimulation (supramaximal voltage, 0.10 Hz., 0.25 msec. duration) through platinum ring electrodes at the top and bottom of the bath. Regular contractions of the muscle, which result from electrically-induced liberation of acetylcholine from postganglionic parasympathetic nerves, are recorded on a polygraph (Grass model 5). Following tissue equilibration (45-60 min.) and repeated washing (every 10 min.) an aqueous solution of a reference or test compound is added to the bath in a microliter volume (1.25-250 μl) and reductions in muscle twitch height are recorded. More compound can be added […] first washing the preparation.
From the results a half-maximal inhibitory concentration (IC50) value for the compound is computed by regression analysis of a linear plot of logarithm of concentration against percent of inhibition of twitch height (probits). The ratio of the IC50 value of a reference compound to that of a test compound tested in the same preparation is the molar potency ratio. At least four preparations are tested simultaneously (N=4), and the resulting molar potency ratios are averaged.
The following results were obtained using the examples as test compounds and Met^5 -enkephalin as the reference compound: […]

**Q.** Which “Average Molar Potency Ratio” value does the source give for CC(C)CCNC(=O)[C@H](Cc1ccccc1)NC(=O)[C@@H](C)NC(=O)[C@@H](N)Cc1ccc(O)cc1 [Example 1, L-tyrosyl-D-alanyl-N-(3-methylbutyl)-L-phenylalaninamide] here?
**A.** Its value is 25.

**Q.** With “D,L-N-(3-methylbutyl)-2-[(L-tryosyl-D-alanyl)amino]benzenepentanamide [Example 7]” as the compound, how does the “Average Molar Potency Ratio” value read?
**A.** Its value is 5.

**Q.** Which “Average Molar Potency Ratio” value does the source give for Met^5 -enkephalin [reference compound] here?
**A.** Its value is 100.

**Q.** With CC(C)CCNC(=O)[C@H](Cc1ccccc1)NC(=O)[C@@H](CN(C)C)NC(=O)[C@@H](N)Cc1ccc(O)cc1 [Example 3, L-tyrosyl-3-(dimethylamino)-D-alanyl-N-(3-methylbutyl)-L-phenylalaninamide] as the compound, how does the “Average Molar Potency Ratio” value read?
**A.** The value was 5.

**Q.** Which “Average Molar Potency Ratio” value does the source give for CC(C)CCN(CCc1ccccc1)C(=O)[C@H](Cc1ccccc1)NC(=O)[C@@H](C)NC(=O)[C@@H](N)Cc1ccc(O)cc1 [Example 2, L-tyrosyl-D-alanyl-N-(3-methylbutyl)-N-(2-phenylethyl)-L-phenylalaninamide] here?
**A.** Its value is 6.
